According to ChEMBL document CHEMBL1126332 (Bioorg Med Chem Lett, 1992):
Activity calls are given as the source filed them. The calls are words filed in the database; no cut-off is given here.

Experiments:
[1] = biological target: T1, Polyunsaturated fatty acid 5-lipoxygenase (Homo sapiens, UniProt P09917); assay: Inhibition of [14C]arachidonic acid conversion to 5-HETE by broken cell 5-LO isolated from guinea pig PMN; not active at the highest concentration (3 ug/mL) tested; No activity; format: functional, Cavia porcellus; settings: target entry is the homologue from another species
T1 sequence (P09917 whole entry): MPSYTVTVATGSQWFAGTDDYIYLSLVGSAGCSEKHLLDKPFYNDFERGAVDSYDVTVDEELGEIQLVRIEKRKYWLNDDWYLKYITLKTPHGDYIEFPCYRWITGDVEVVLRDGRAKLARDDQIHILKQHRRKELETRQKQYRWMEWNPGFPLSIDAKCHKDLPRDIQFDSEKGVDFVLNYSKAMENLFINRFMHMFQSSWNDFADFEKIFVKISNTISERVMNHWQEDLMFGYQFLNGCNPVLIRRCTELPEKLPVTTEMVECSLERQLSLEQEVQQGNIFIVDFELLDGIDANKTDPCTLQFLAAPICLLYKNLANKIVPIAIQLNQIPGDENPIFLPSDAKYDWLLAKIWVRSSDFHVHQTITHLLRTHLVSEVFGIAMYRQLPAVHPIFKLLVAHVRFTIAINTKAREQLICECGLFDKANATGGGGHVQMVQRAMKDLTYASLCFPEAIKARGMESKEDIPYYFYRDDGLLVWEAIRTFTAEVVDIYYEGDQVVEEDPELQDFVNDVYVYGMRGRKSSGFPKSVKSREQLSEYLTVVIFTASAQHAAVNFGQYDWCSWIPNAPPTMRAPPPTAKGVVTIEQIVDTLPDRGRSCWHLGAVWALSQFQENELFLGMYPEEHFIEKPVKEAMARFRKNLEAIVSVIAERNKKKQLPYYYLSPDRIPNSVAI

Oryctolagus cuniculus = organism: Oryctolagus cuniculus; assay: The ability to inhibit iron-dependent lipid peroxidation of rabbit brain homogenate; not active at the highest concentration (30 ug/mL) tested; No activity; format: functional

CC1=NN(CCOc2ccc3ccccc3c2)C(=O)C1(C)C
IC50 [1]: Not Active
MIC (Oryctolagus cuniculus): inactive
